{
  "source": "paper PMC9256654",
  "about": "“Mechanistic basis for maintenance of CHG DNA methylation in plants” (Nature Communications, 2022)",
  "molecular_target": "T1, CMT3 (Arabidopsis thaliana, UniProt Q94F88)",
  "T1 construct": "residues 42-839; N-terminal His6-SUMO tag removed by ULP1; E. coli BL21(DE3) RIL",
  "T1 sequence (Q94F88 42-839)": "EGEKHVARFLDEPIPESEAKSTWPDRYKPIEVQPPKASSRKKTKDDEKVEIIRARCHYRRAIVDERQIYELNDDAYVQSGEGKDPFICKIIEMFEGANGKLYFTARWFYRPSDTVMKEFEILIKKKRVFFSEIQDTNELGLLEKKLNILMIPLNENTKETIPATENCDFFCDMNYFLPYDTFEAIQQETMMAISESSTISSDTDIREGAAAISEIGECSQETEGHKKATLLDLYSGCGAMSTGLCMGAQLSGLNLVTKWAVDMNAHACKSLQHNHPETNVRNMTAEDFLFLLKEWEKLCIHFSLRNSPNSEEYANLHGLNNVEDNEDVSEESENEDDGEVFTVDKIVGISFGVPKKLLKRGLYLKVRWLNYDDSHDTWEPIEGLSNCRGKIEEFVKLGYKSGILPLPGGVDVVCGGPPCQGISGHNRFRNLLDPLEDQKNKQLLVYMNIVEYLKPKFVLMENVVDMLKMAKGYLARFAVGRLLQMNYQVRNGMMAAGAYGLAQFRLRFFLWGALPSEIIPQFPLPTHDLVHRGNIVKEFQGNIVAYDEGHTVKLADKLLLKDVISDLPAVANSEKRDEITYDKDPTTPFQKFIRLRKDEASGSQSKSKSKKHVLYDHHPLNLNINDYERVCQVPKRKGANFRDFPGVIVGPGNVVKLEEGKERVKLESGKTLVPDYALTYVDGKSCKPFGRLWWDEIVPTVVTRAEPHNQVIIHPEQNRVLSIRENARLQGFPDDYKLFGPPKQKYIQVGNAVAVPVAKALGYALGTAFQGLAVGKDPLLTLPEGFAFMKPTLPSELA",
  "assay": "radiometric DNA methylation assay (3H-methyl transfer, nylon membrane)",
  "type": "biochemical",
  "conditions": "labelled compound; 0.56 uM [3H]SAM plus 1.96 uM SAM; 4.0 uM DNA; 4.0 uM histone peptide; no added NaCl; pH 8.0, 37 C, 1 h",
  "data": [
    {"smiles": "C[S+](CC[C@H](N)C(=O)O)C[C@H]1O[C@@H](n2cnc3c(N)ncnc32)[C@H](O)[C@@H]1O", "note": "(stereo partly drawn) [SAM, S-adenosyl-L-methionine]", "values": [
      {"measurement": "radiometric DNA methylation assay (3H-methyl transfer, nylon membrane)", "result": "All the rest of the reaction conditions for CMT3 were the same as those for ZMET2"}
    ]}
  ]
}
